Test results from patent US5179120A, “Porphycene compounds for photodynamic therapy” (Cytopharm, Inc., priority 1991, dated 1993).

Tests used:
[1] = Stability towards oxygen and light (observation during preparation); assay type: physicochemical; details: traces of oxygen in the presence of light
Method: At room temperature while stirring in the dark, 243 mg (248 μL, 1.6 mmol) DBU were added all at once to a solution of 14.8 mg (20 μmol) tetrakis(bromoethyl)porphycene in 50 mL of absolute THF. After thirty minutes, the agitator was turned off and the mixture left to stand at room temperature for two days. Subsequently the greenish-blue solution was treated with 80 mL of CH2 Cl2 and poured into 80 mL of 0.5% HCl. The organic phase was shaken out and washed with water and a 2% NaHCO3 solution, dried over Na2 SO4 and the solvent was evaporated under vacuum. The residue was chromatographed with CH2 Cl2 on aluminum oxide (Brockmann, II-III activity stage, column 2×10 cm) and the first green fraction was collected. The solvent was slowly evaporated under a slight vacuum and the remaining fine crystalline solid was washed with 3 mL of ice cooled, absolute pentane. Following drying under a high vacuum, 4.1 mg (10 μmol) tetravinylporphycene were obtained. […] The yield was 50%.
All reagents and solvents were purged of oxygen by introducing inert gas and all purification steps were carried out under subdued light, as was the reaction.

[2] = Solubility of the title compound in selected solvents; assay type: physicochemical
From the text: Solubility of the title compound in selected solvents: […]

C=CC1=Cc2nc1ccc1[nH]c(cc1C=C)c1nc(ccc3[nH]c2cc3C=C)C(C=C)=C1 [2,7,12,17-Tetravinylporphycene]
Stability (decomposition) [1]: decomposed even with traces of oxygen in the presence of light

COCCC1=Cc2nc1ccc1[nH]c(cc1CCOC)c1nc(c(OC(C)=O)cc3[nH]c2cc3CCOC)C(CCOC)=C1 [9-Acetoxy-2,7,12,17-tetrakis(methoxyethyl)porphycene]
Solubility of the title compound in selected solvents ([2]; CH2 Cl2): Excellent
Solubility of the title compound in selected solvents ([2]; CHCl3): Excellent
Solubility of the title compound in selected solvents ([2]; DEET): Good
Solubility of the title compound in selected solvents ([2]; DMF): Good
Solubility of the title compound in selected solvents ([2]; DMSO): Good
Solubility of the title compound in selected solvents ([2]; EtOH): Moderate
Solubility of the title compound in selected solvents ([2]; MeOH): Moderate
Solubility of the title compound in selected solvents ([2]; THF): Excellent
Solubility of the title compound in selected solvents ([2]; Toluene): Good
Solubility of the title compound in selected solvents ([2]; acetone): Good
Solubility of the title compound in selected solvents ([2]; ethyl acetate): Excellent
Solubility of the title compound in selected solvents ([2]; hexane): Insoluble
Solubility of the title compound in selected solvents ([2]; i-propanol): Moderate
Solubility of the title compound in selected solvents ([2]; water): Insoluble
